This is an account of results in patent US20260297080A1, “BICYCLIC COMPOUNDS AS CDK INHIBITORS” (BeOne Medicines I GmbH, priority 2022, published 2026).

The structures appear in SMILES notation.

One test concerns the target CDK1/Cyclin B1 (Homo sapiens, UniProt P06493). Nature of the test: CDK1/Cyclin B1 Biochemical Assay (TR-FRET), 0.015 mM ATP. As to conditions: 0.15 μM Rb (Ser780)-biotin substrate, pH7.0, 60 min preincubation, 120 min reaction, room temperature. The method, then:
(§1) CDK2/Cyclin E1 and CDK1/Cyclin B1 Biochemical Assays
(§2) Compounds disclosed herein were tested for inhibition of CDK2/Cyclin E1 or CDK1/Cyclin B1 kinase in an assay based on the time-resolved fluorescence-resonance energy transfer (TR-FRET) methodology. The assay was carried out in 384-well low volume black plates in a reaction mixture containing CDK2/Cyclin E1 or CDK1/Cyclin B1, 0.060 mM ATP for CDK2/Cyclin E1 or 0.015 mM ATP for CDK1/Cyclin B1, 0.15 μM Rb (Ser780)-biotin substrate and 0-10 μM compound in buffer containing 50 mM HEPES pH7.0, 0.02% NaN3, 0.01% BSA, 0.1 mM Orthovanadate, 50 mM MgCl2, 1 mM DTT and 0.005% Tween-20. The kinase was incubated with compound for 60 minutes at room temperature and the reaction was initiated by the addition of ATP and Rb (Ser780)-biotin substrate. After reaction at room temperature for 120 minutes, an equal volume of stop/detection solution was added according to the manufacture's instruction (Cisbio Bioassays). The stop/detection solution contained Streptavidin-XL665 and Anti-pRb (Ser780) mAb-Eu Cryptate in Detection buffer (Cisbio Bioassays). Plates were incubated at room temperature for 60 minutes, and the TR-FRET signals (ex337 nm, em665 nm/620 nm) were recorded on a PHERAstar FSX plate reader (BMG Labtech). The inhibition percentage of CDK2/Cyclin E1 or CDK1/Cyclin B1 kinase activity in presence of increasing concentrations of compounds was calculated based on the ratio of fluorescence at 665 nm to that at 620 nm. The IC50 for each compound was derived from fitting the data to the four-parameter logistic equation by Dotmatics.

Another test has as its target CDK2/Cyclin E1 (Homo sapiens, UniProt P24941). Briefly: CDK2/Cyclin E1 Biochemical Assay (TR-FRET), 0.060 mM ATP. Conditions: 0.15 μM Rb (Ser780)-biotin substrate, pH7.0, 60 min preincubation, 120 min reaction, room temperature. The procedure: as §1, §2

Sequence of CDK1/Cyclin B1 (P06493 whole entry): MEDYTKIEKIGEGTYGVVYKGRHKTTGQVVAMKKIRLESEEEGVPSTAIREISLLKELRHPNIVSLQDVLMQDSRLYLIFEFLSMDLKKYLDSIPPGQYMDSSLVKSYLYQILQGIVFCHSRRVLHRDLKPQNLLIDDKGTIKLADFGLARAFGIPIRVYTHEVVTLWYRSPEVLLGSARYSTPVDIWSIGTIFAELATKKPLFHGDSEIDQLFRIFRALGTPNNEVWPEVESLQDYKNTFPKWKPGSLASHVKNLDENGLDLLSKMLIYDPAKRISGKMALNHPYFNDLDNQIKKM
Sequence of CDK1/Cyclin B1 (P14635 whole entry partner): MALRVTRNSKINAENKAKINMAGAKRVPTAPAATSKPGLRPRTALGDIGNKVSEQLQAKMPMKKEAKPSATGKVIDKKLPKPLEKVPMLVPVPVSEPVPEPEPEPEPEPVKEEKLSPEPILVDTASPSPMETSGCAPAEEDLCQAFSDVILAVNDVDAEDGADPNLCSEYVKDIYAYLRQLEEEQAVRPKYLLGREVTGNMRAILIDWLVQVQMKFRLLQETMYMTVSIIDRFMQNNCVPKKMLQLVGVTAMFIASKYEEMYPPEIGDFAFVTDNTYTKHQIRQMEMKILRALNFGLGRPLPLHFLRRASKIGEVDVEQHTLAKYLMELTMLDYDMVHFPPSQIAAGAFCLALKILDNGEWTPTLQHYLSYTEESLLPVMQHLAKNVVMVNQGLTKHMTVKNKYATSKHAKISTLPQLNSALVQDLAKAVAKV

`COCC1(NC(=O)O[C@H]2CC[C@@H](c3cc(Nc4ccc5c(c4F)CNS5(=O)=O)n[nH]3)C2)CC1` (racemic) [Example 158, cis-3-(3-((4-fluoro-1,1-dioxido-2,3-dihydrobenzo[d]isothiazol-5-yl)amino)-1H-pyrazol-5-yl)cyclopentyl(1-(methoxymethyl)cyclopropyl)carbamate]: the values for the IC50 against CDK1/Cyclin B1 and at CDK2/Cyclin E1 were 123 nM and 3.1 nM, respectively.
For `CC1(NC(=O)O[C@H]2CC[C@@H](c3cc(Nc4ccc5c(c4F)CNS5(=O)=O)n[nH]3)C2)CCOC1` (mixture of isomers) [Example 162, cis-3-(3-((4-fluoro-1,1-dioxido-2,3-dihydrobenzo[d]isothiazol-5-yl)amino)-1H-pyrazol-5-yl)cyclopentyl(3-methyltetrahydrofuran-3-yl)carbamate], in that order: 163 nM and 2.4 nM.
For `CC1(NC(=O)O[C@H]2CC[C@@H](c3cc(Nc4ccc5c(c4F)CNS5(=O)=O)n[nH]3)C2)COC1` (racemic) [Example 164, cis-3-(3-((4-fluoro-1,1-dioxido-2,3-dihydrobenzo[d]isothiazol-5-yl)amino)-1H-pyrazol-5-yl)cyclopentyl(3-methyloxetan-3-yl)carbamate], in that order: 294 nM and 5 nM.
Take `CN1c2ccc(Nc3cc([C@@H]4CC[C@H](OC(=O)NC5CCC5)C4)[nH]n3)cc2CS1(=O)=O` (racemic) [Example 227, cis-3-(3-((1-methyl-2,2-dioxido-1,3-dihydrobenzo[c]isothiazol-5-yl)amino)-1H-pyrazol-5-yl)cyclopentyl cyclobutylcarbamate]: the IC50 against CDK1/Cyclin B1 was determined as 249 nM; at CDK2/Cyclin E1, 5 nM.
For `CC1(NC(=O)O[C@H]2CC[C@@H](c3cc(Nc4ccc5c(c4)CCS(=O)(=O)N5)n[nH]3)C2)CC1` (racemic) [Example 249, cis-3-(3-((2,2-dioxido-3,4-dihydro-1H-benzo[c][1,2]thiazin-6-yl)amino)-1H-pyrazol-5-yl)cyclopentyl(1-methylcyclopropyl)carbamate], in that order: 29 nM and 2.1 nM.
For `CC(C)NC(=O)O[C@H]1CC[C@@H](c2cc(Nc3ccc4c(c3F)CS(=O)(=O)N4)n[nH]2)C1` (racemic) [Example 251, cis-3-(3-((4-fluoro-2,2-dioxido-1,3-dihydrobenzo[c]isothiazol-5-yl)amino)-1H-pyrazol-5-yl)cyclopentyl isopropylcarbamate], in that order: 25 nM and 0.4 nM.
For `CC(C)NC(=O)O[C@H]1CC[C@@H](c2cc(Nc3ccc4c(c3F)CS(=O)(=O)N4CC(C)(C)O)n[nH]2)C1` (racemic) [Example 254, cis-3-(3-((4-fluoro-1-(2-hydroxy-2-methylpropyl)-2,2-dioxido-1,3-dihydrobenzo[c]isothiazol-5-yl)amino)-1H-pyrazol-5-yl)cyclopentyl isopropylcarbamate], in that order: 249 nM and 10 nM.
Consider `CCCNC(=O)O[C@H]1CC[C@@H](c2cc(Nc3ccc4c(c3F)CS(=O)(=O)N4C3COC3)n[nH]2)C1` (racemic) [Example 260, cis-3-(3-((4-fluoro-1-(oxetan-3-yl)-2,2-dioxido-1,3-dihydrobenzo[c]isothiazol-5-yl)amino)-1H-pyrazol-5-yl)cyclopentyl propylcarbamate], for which the IC50 turned out to be 110 nM against CDK1/Cyclin B1 and 3.2 nM against CDK2/Cyclin E1.
Take `CC[C@H](C)NC(=O)O[C@H]1CC[C@@H](c2cc(Nc3ccc4c(c3F)CS(=O)(=O)N4C3COC3)n[nH]2)C1` (racemic) [Example 261, cis-3-(3-((4-fluoro-1-(oxetan-3-yl)-2,2-dioxido-1,3-dihydrobenzo[c]isothiazol-5-yl)amino)-1H-pyrazol-5-yl)cyclopentyl((S)-sec-butyl)carbamate]: the IC50 against CDK1/Cyclin B1 is 49 nM; against CDK2/Cyclin E1 it was 1.3 nM.
For `CC(C)NC(=O)O[C@H]1CC[C@@H](c2cc(Nc3ccc4c(c3)CNS4(=O)=O)n[nH]2)C1` (relative stereo) [Example 2, cis-3-(3-((1,1-dioxido-2,3-dihydrobenzo[d]isothiazol-5-yl)amino)-1H-pyrazol-5-yl)cyclopentyl isopropylcarbamate], in that order: 36.1 nM and 0.9 nM.
For `CC(C)NC(=O)O[C@H]1CC[C@@H](c2cc(Nc3ccc4c(c3)S(=O)(=O)NC4)n[nH]2)C1` (relative stereo) [Example 3, cis-3-(3-((1,1-dioxido-2,3-dihydrobenzo[d]isothiazol-6-yl)amino)-1H-pyrazol-5-yl)cyclopentyl isopropylcarbamate], in that order: 29 nM and 1.2 nM.
As for `CC(C)NC(=O)O[C@H]1CC[C@@H](c2cc(Nc3ccc4c(c3)S(=O)(=O)NC4(C)C)n[nH]2)C1` (relative stereo) [Example 4, cis-3-(5-((3,3-dimethyl-1,1-dioxido-2,3-dihydrobenzo[d]isothiazol-6-yl)amino)-1H-pyrazol-3-yl)cyclopentyl isopropylcarbamate], the IC50 against CDK1/Cyclin B1 stood at 184 nM; against CDK2/Cyclin E1, 8.6 nM.
For the compound `CC(C)NC(=O)O[C@H]1CC[C@@H](c2cc(Nc3ccc4c(c3)C(C)(C)NS4(=O)=O)n[nH]2)C1` (relative stereo) [Example 6, cis-3-(3-((3,3-dimethyl-1,1-dioxido-2,3-dihydrobenzo[d]isothiazol-5-yl)amino)-1H-pyrazol-5-yl)cyclopentyl isopropylcarbamate], the figures for the half-inhibitory concentration (IC50) on CDK1/Cyclin B1 and against CDK2/Cyclin E1 were 108 nM and 6.5 nM, respectively.
For `CC(C)NC(=O)O[C@H]1CC[C@@H](c2cc(Nc3cc4c(cc3F)C(C)(C)NS4(=O)=O)n[nH]2)C1` (relative stereo) [Example 8, cis-3-(3-((5-fluoro-3,3-dimethyl-1,1-dioxido-2,3-dihydrobenzo[d]isothiazol-6-yl)amino)-1H-pyrazol-5-yl)cyclopentyl isopropylcarbamate], in that order: 1540 nM and 121 nM.
For `COc1c(Nc2cc([C@@H]3CC[C@H](OC(=O)NC(C)C)C3)[nH]n2)ccc2c1CNS2(=O)=O` (relative stereo) [Example 10, cis-3-(3-((4-methoxy-1,1-dioxido-2,3-dihydrobenzo[d]isothiazol-5-yl)amino)-1H-pyrazol-5-yl)cyclopentyl isopropylcarbamate], in that order: 3020 nM and 102 nM.
`CC(C)NC(=O)O[C@H]1CC[C@@H](c2cc(Nc3ccc4c(c3)CN(C)S4(=O)=O)n[nH]2)C1` (relative stereo) [Example 11, cis-3-(3-((2-methyl-1,1-dioxido-2,3-dihydrobenzo[d]isothiazol-5-yl)amino)-1H-pyrazol-5-yl)cyclopentyl isopropylcarbamate]: the values for the IC50 against CDK1/Cyclin B1 and against CDK2/Cyclin E1 were 140 nM and 4.1 nM, respectively.
Regarding `CC(C)NC(=O)O[C@H]1CC[C@@H](c2cc(Nc3ccc4c(c3F)S(=O)(=O)NC4(C)C)n[nH]2)C1` (relative stereo) [Example 13, cis-3-(3-((7-fluoro-3,3-dimethyl-1,1-dioxido-2,3-dihydrobenzo[d]isothiazol-6-yl)amino)-1H-pyrazol-5-yl)cyclopentyl isopropylcarbamate], the results for the IC50 on CDK1/Cyclin B1 and against CDK2/Cyclin E1 were 563 nM and 21 nM, respectively.
